Experimental data reported in patent US20220227765A1, “PYRIDO-INDOLE ANALOGUES AS GPX4 INHIBITORS” (Ferro Therapeutics, Inc., priority 2019, published 2022).
Read-outs that look alike come from different tables or passages of the source.

Legend:
Format in all cases: cell-based, human
[1] = tested on: 786-O; experiment: Cell proliferation (Alamar Blue) assay, 786-O
Experimental: (§1) Cell viability assay was performed to assess the potency of the compounds in human cancer cell lines 786-0 (renal cell carcinoma) and SJSA-1 (osteosarcoma). Additional cell lines, such as pancreatic cancer cell lines (Panc 02.13, BxPC-3, Panc 12, Panc 02.03, Panc 6.03, PSN-1, HPAC, and Capan-1), prostate cancer cell lines (PC-3, DU145, 22Rv1, NCI-H660, BPH1, LNCaP, BM-1604, and MDA PCa 2b), etc., can be tested in a similar method.
(§2) Cells (SJSA-1, 786-0 and A431) were seeded (5000 cells/100 μL/well) in 96-well tissue culture plate and incubated at 37° C./5% CO2 for 16-24 hours. The cells were then treated with compounds (25 μL of 5×). The compound concentrations were 10-0.0005 μM prepared in 3-fold serial dilutions with final DMSO concentration of 1%. The plates were then incubated for 24 h at 37° C./5% CO2 in a moist environment. Then Alamar Blue™ reagent (final concentration 1×-12.5 μL) was added to each well and incubated for 1.5 hours at 37° C./5% CO2. The plates were read on fluorescence reader at 540 nm excitation and 590 nm emission wavelengths. The IC50 values were subsequently determined using a sigmoidal dose-response curve (variable slope) in GraphPad Prism® 5 software. Table A-3, Table B-3 and Table C-3 show cell proliferation data for certain compounds as described herein.

[2] = tested on: SJSA-1; experiment: Cell proliferation (Alamar Blue) assay, SJSA-1
Experimental: as §1, §2

[3] = tested on: A431; experiment: Cell proliferation (Alamar Blue) assay, A431
Experimental: as §1, §2

[4] = Homo sapiens, 786-0, 24 h, Table B-3, 786-O cells
[5] = Homo sapiens, SJSA-1, 24 h, Table B-3, head prints SJSB-1, 24 h, read-out: IC50 (μM) SJSB-1
[6] = Homo sapiens, A-431, 24 h, Table B-3, A431 cells
[7] = Homo sapiens, 786-0, 24 h, Table A-3, 786-O cells
[8] = Homo sapiens, SJSA-1, 24 h, Table A-3, SJSA-1 cells, 24 h, read-out: IC50 (μM) SJSA-1
[9] = Homo sapiens, A-431, 24 h, Table A-3, A431 cells
[10] = Homo sapiens, 786-0, 24 h, Table C-3, 786-O cells
[11] = Homo sapiens, SJSA-1, 24 h, Table C-3, SJSA-1 cells, 24 h, read-out: IC50 (μM) SJSA-1
[12] = Homo sapiens, A-431, 24 h, Table C-3, A431 cells

Compound	IC50 [1, 4]	IC50 [2, 5]	IC50 [3, 6]	further results
C#CC(=O)N1[C@@H](CCCC)Cc2c([nH]c3ncccc23)[C@@H]1c1ccc(F)cc1 [Compound A-3]				IC50 [1, 7]: 0.017 µM; IC50 [2, 8]: 0.017 µM; IC50 [3, 9]: 8.36 µM
C#CC(=O)N1[C@@H](CCCC)Cc2c([nH]c3ccccc23)[C@@H]1c1ccc(NC2CCCCC2)cc1 [Compound B-71]	0.042 µM	0.056 µM	> 10 µM	
C#CC(=O)N1[C@@H](CCCC)Cc2c([nH]c3ccccc23)[C@@H]1c1ccc(NC23CC4CC(CC(C4)C2)C3)cc1 [Compound B-17]				IC50 ([1]; Table B-3, 786-O cells, 24 h): 0.006 µM; IC50 ([2]; Table B-3, head prints SJSB-1, 24 h, read-out: IC50 (μM) SJSB-1): 0.008 µM; IC50 ([3]; Table B-3, A431 cells, 24 h): 3.6 µM
C#CC(=O)N1[C@@H](CCCC)Cc2c([nH]c3c(F)cc(F)cc23)[C@@H]1CCC [Compound C-3]				IC50 [1, 10]: 0.14 µM; IC50 [2, 11]: 0.22 µM; IC50 [3, 12]: > 10 µM
C#CC(=O)N1[C@@H](CCCC)Cc2c([nH]c3c(F)cc(F)cc23)[C@@H]1c1ccc(N2CCN(C)CC2)cc1 [Compound B-57]	0.059 µM	0.063 µM	> 10 µM	
C#CC(=O)N1[C@@H](CCCC)Cc2c([nH]c3c(F)cc(F)cc23)[C@@H]1C1CCC2(CC1)OCCO2 [Compound B-99]	0.207 µM	0.504 µM	> 10 µM	
CCCC[C@H]1Cc2c([nH]c3c(F)cc(F)cc23)[C@H](C23CC(N)(C2)C3)N1C(=O)CCl [Compound B-83]	0.12 µM	0.12 µM	> 10 µM	
C#CC(=O)N1[C@@H](CCCC)Cc2c([nH]c3c(F)cc(F)cc23)[C@@H]1C1CCC(O)CC1 (stereo partly drawn) [Compound B-77]	0.166 µM	0.16 µM	6.57 µM	
C#CC(=O)N1[C@@H](CCCC)Cc2c([nH]c3ccccc23)[C@@H]1c1ccc(NC2CCCC2)cc1 [Compound B-68]	0.045 µM	0.0715 µM	> 10 µM	
C#CC(=O)N1[C@@H](CCCC)Cc2c([nH]c3ccccc23)[C@@H]1c1ccc(C(=O)NCCn2ccnc2)cc1 [Compound B-19]	0.367 µM	0.294 µM	> 10 µM	
C#CC(=O)N1[C@@H](CCCC)Cc2c([nH]c3c(F)cc(F)cc23)[C@@H]1CCCCCCCCCCCCCCC [Compound C-6]				IC50 [1, 10]: > 10 µM; IC50 [2, 11]: > 10 µM; IC50 [3, 12]: > 10 µM
C#CC(=O)N1[C@@H](CCCC)Cc2c([nH]c3ccc(F)cc23)[C@@H]1c1ccc(NC23CC4CC(CC(C4)C2)C3)cc1 [Compound B-64]	0.008 µM	0.012 µM	4.45 µM	
C#CC(=O)N1[C@@H](CCCC)Cc2c([nH]c3ccccc23)[C@@H]1c1ccc(N2CCC3(COC3)C2)cc1 [Compound B-69, 1-((1S,3S)-1-(4-(2-oxa-6-azaspiro[3.4]octan-6-yl)phenyl)-3-butyl-1,3,4,9-tetrahydro-2H-pyrido[3,4-b]indol-2-yl)prop-2-yn-1-one]	0.047 µM	0.036 µM	> 1 µM	
C#CC(=O)N1[C@@H](C)Cc2c([nH]c3ccccc23)[C@]1(C)c1ccc(F)cc1 [Compound C-37]				IC50 [1, 10]: 0.017 µM; IC50 [2, 11]: 0.054 µM; IC50 [3, 12]: > 10 µM
C#CC(=O)N1[C@@H](CCCC)Cc2c([nH]c3ccccc23)[C@@H]1c1ccc(NC2CCS(=O)(=O)CC2)cc1 [Compound B-13]	0.013 µM	0.018 µM	7.2 µM	
C#CC(=O)N1[C@@H](CCCC)Cc2c([nH]c3ncccc23)[C@@H]1c1ccc(NC23CC4CC(CC(C4)C2)C3)cc1 [Compound A-7]				IC50 [1, 7]: 0.034 µM; IC50 [2, 8]: 0.058 µM; IC50 [3, 9]: 4.88 µM
C#CC(=O)N1[C@@H](CCCC)Cc2c([nH]c3ccccc23)[C@@H]1c1ccc(C(=O)NCC2(O)CCC2)cc1 [Compound B-16]	0.007 µM	0.029 µM	6.4 µM	
C#CC(=O)N1[C@@H](CCCC)Cc2c([nH]c3c(F)cc(F)cc23)[C@@H]1CCCC [Compound B-74]	0.05 µM	0.04 µM	4.4 µM	
C#CC(=O)N1[C@@H](CCCC)Cc2c([nH]c3ccccc23)[C@@H]1CCCCCC [Compound B-93]	0.091 µM	0.077 µM	> 10 µM	
CCCC[C@H]1Cc2c([nH]c3ccccc23)[C@](C)(c2ccc(F)cc2)N1C(=O)CCl [Compound C-14]				IC50 [1, 10]: 0.017 µM; IC50 [2, 11]: 0.017 µM; IC50 [3, 12]: > 10 µM
C#CC(=O)N1[C@@H](CCCC)Cc2c([nH]c3ccc(F)cc23)[C@@H]1c1ccc(C(=O)NCCOC)cc1 [Compound B-11]	0.008 µM	0.025 µM	4.3 µM	

Further lines, with some results ahead:

IC50 [1, 4]	IC50 [2, 5]	IC50 [3, 6]	Compound	further results
0.002 µM	0.002 µM	5.5 µM	C#CC(=O)N1[C@@H](CCCC)Cc2c([nH]c3ccccc23)[C@@H]1c1ccc(C(=O)NC23CC4CC(CC(C4)C2)C3)cc1 [Compound B-7, N-((3R,5R,7R)-adamantan-1-yl)-4-((1S,3S)-3-butyl-2-propioloyl-2,3,4,9-tetrahydro-1H-pyrido[3,4-b]indol-1-yl)benzamide]	
0.31 µM	0.706 µM	> 10 µM	C#CC(=O)N1[C@@H](CCCC)Cc2c([nH]c3c(F)cc(F)cc23)[C@@H]1c1ccc(N2CCC2)c(C#N)c1 [Compound B-60]	
0.005 µM	0.011 µM	1.7 µM	C#CC(=O)N1C(CCCC)Cc2c([nH]c3ccccc23)[C@H]1c1ccc(CNCC23CC4CC(CC(C4)C2)C3)cc1 (stereo partly drawn) [Compound B-45B]	
0.013 µM	0.03 µM	> 10 µM	CCCCCOC(=O)NC12CC([C@H]3c4[nH]c5c(F)cc(F)cc5c4C[C@H](CCCC)N3C(=O)CCl)(C1)C2 [Compound B-90]	
0.043 µM	0.093 µM	6.8 µM	C#CC(=O)N1[C@@H](CCCC)Cc2c([nH]c3c(F)cc(F)cc23)[C@@H]1COCCOC [Compound B-80]	
0.0002 µM	0.001 µM	3.8 µM	C#CC(=O)N1C(CCCC)Cc2c([nH]c3ccccc23)[C@@H]1c1ccc(CNCC23CC4CC(CC(C4)C2)C3)cc1 (stereo partly drawn) [Compound B-45A]	
0.001 µM	0.003 µM	2.7 µM	CCCC[C@H]1Cc2c([nH]c3ccccc23)[C@H](c2ccc(C(=O)NC34CC5CC(CC(C5)C3)C4)cc2)N1C(=O)CCl [Compound B-1, N-((1R,3R)-adamantan-1-yl)-4-((1S,3S)-3-butyl-2-(2-chloroacetyl)-2,3,4,9-tetrahydro-1H-pyrido[3,4-b]indol-1-yl)benzamide]	
0.07 µM	0.08 µM	9.4 µM	C#CC(=O)N1[C@@H](CCCC)Cc2c([nH]c3c(F)cc(F)cc23)[C@@H]1CCCCCCCC [Compound B-79]	
0.0285 µM	0.04 µM	7.84 µM	C#CC(=O)N1[C@@H](CCCC)Cc2c(sc3ccccc23)[C@@H]1c1ccc(NC(=O)OCCCCC)cc1 [Compound B-100]	
0.14 µM	0.22 µM	> 10 µM	C#CC(=O)N1[C@@H](CCCC)Cc2c([nH]c3c(F)cc(F)cc23)[C@@H]1CCC [Compound B-73]	
0.0165 µM	0.066 µM	4.76 µM	C#CC(=O)N1[C@@H](CCCC)Cc2c(n(C)c3ccccc23)[C@@H]1c1ccc(NC23CC4CC(CC(C4)C2)C3)cc1 [Compound B-70, 1-((1S,3S)-1-(4-(((1R,3R,5S)-adamantan-1-yl)amino)phenyl)-3-butyl-9-methyl-1,3,4,9-tetrahydro-2H-pyrido[3,4-b]indol-2-yl)prop-2-yn-1-one]	
0.006 µM	0.0025 µM	2 µM	C#CC(=O)N1[C@@H](CCC)Cc2c([nH]c3ccccc23)[C@@H]1c1ccc(NC23CC4CC5CC(C2)C54C3)cc1 (stereo partly drawn) [Compound B-67]	
0.015 µM	0.016 µM	3.53 µM	C#CC(=O)N1[C@@H](CCCC)Cc2c([nH]c3c(F)cc(F)cc23)[C@@H]1c1ccc(NC23CC4CC(CC(C4)C2)C3)cc1 [Compound B-65]	
0.061 µM	0.059 µM	5.8 µM	C#CC(=O)N1C(c2ccn(C34CC5CC(CC(C5)C3)C4)n2)c2[nH]c3ccccc3c2C[C@@H]1CCCC (stereo partly drawn) [Compound B-63]	
1.06 µM	1.37 µM	> 10 µM	C#CC(=O)N1[C@@H](CCCC)Cc2c([nH]c3ccccc23)[C@@H]1C12CC3CC(CC(C3)C1)C2 [Compound B-94]	
0.137 µM	0.17 µM	> 10 µM	C#CC(=O)N1[C@@H](CCCC)Cc2c([nH]c3ccccc23)[C@@H]1CCCCC [Compound B-92]	
0.32 µM	0.74 µM	> 10 µM	C#CC(=O)N1C(CCCC)Cc2c([nH]c3ccccc23)[C@@H]1c1ccc(C(O)CO)cc1 (stereo partly drawn) [Compound B-95]	
